From a melting point compilation (Tetko et al.; mined from patent text by program, amines drawn as free bases though some values may be those of a salt)

Row | melting point [°C] | SMILES
1 | 181 to 182 | CN(c1ccc(CC(=O)O)cc1)c1cc(C(C)(C)C)c(O)c(C(C)(C)C)c1
2 | 117 to 120 | COC(=O)c1ccc(Cl)cc1NC(=O)CSc1nc2ccccc2s1
3 | 158 to 160 | COC(=O)n1nc(C(=O)NC2CN(C)CCN(Cc3ccccc3)C2)c2ccccc21 (centres undefined)
4 | 159 to 161 | COc1ccc2[nH]c(C(=O)c3ccccc3)cc2c1
5 | 77 to 81 | CCC(C)NC(C(=O)NCCCC(c1ccc(F)cc1)c1ccc(F)cc1)C(C)C (centres undefined)
6 | 250 | CCN1CCCC1CNC(=O)Cc1ccc(-c2ccc3c(=O)c(C(=O)NC)c(C)n(CC)c3n2)s1 (centres undefined)
7 | 169 | Cc1cc(OCCCS(C)(=O)=O)cc(C)c1-c1cccc2c1OC[C@H]2Nc1ccc2c(c1)OC[C@H]2CC(=O)O
8 | 105 to 107 | CC(C)ON=Cc1cc(-n2c(=O)cc(C(F)(F)F)n(C)c2=O)ccc1Cl
9 | 273 | COc1cc(C=C(C#N)C(=O)Nc2ccccc2)cc(Cl)c1O
10 | 199 to 201 | CCOC(=O)N(C)S(=O)(=O)c1cc2c(c(Cl)c1Cl)OC(C(=O)O)C2 (centres undefined)
11 | 99 | CCCOc1ccc(C#N)cc1O
12 | 134 to 136 | O=C(O)C(O)N1C(=O)CCN1c1cccc(Cl)c1 (centres undefined)
13 | 221 to 223 | CCC(=O)Nc1cccc2c1C(=O)N(C1CCC(=O)NC1=O)C2=O (centres undefined)
14 | 94 to 99 | CC(=O)c1cc(C#N)c(OCc2ccccc2)nc1C
15 | 287 to 288 | CCC(C)NC1=NS(=O)(=O)c2cc([N+](=O)[O-])ccc2N1 (centres undefined)
16 | 63 to 64 | C=CCOC(=O)c1ccc(COC(=O)c2ccc(OC(C)C)c(C(C)(C)C)c2)cc1
17 | 163 to 164 | O=C(O)C(Cc1ccccc1)c1ccc([N+](=O)[O-])cc1 (centres undefined)
18 | 139 to 141 | CCC(=O)NCCC1CN(C=O)c2ccc3c(c21)CCO3 (centres undefined)
19 | 159 to 161 | CCC(C)(NC(=O)c1cc(Cl)cc(Cl)c1)C(=O)CCl (centres undefined)
20 | 140 to 145 | CCc1cc(C(=O)c2ccccc2Cl)c(-n2c(C)nnc2CNC(=O)c2c[nH]c3ccccc23)s1
21 | 110 to 111 | Cc1c(Br)cc(C(C)(CO)c2ccc(C(C)C)cc2)c(O)c1C (centres undefined)
22 | 71 to 73 | COc1ccccc1C(=O)N1CCN(C(=O)CNC2CCN(Cc3ccccc3)CC2)C(c2ccc(Cl)c(Cl)c2)C1 (racemic)
23 | 53 | CCOC(=O)c1ccc(Br)cc1-c1ccc(OC)c(OC)c1

Row | melting point [°C] | SMILES
24 | 127 to 132 | CCc1ccc(C2C(=O)Oc3c2cc(C(C)(C)C)cc3C(C)(C)C)cc1 (centres undefined)
25 | 116 to 118 | CCCCCCCCCCCCCCOc1ccc(C(=O)Nc2cccc(CBr)c2)cc1
26 | 132 to 133 | Cc1ccc(S(=O)(=O)N=NCNC[C@@H]2C[C@H](C(=O)O)N(C(=O)OC(C)(C)C)C2)cc1
27 | 206 to 210 | N#CCNC(=O)C1(NC(=O)c2ccc(N3CCNCC3)cc2)CCCCC1
28 | 198 to 199 | CC(C)(O)CC1c2ccccc2C(=O)N1CC(=O)O (centres undefined)
29 | 174 to 176 | CC(=O)N(C(C)=O)c1nc2n(n1)Cc1ccccc1-2
30 | 114 to 115 | COC(=O)c1nc(-c2ccc(Cl)cc2)c(F)c(N)c1I
31 | 123 to 126 | Oc1ccc(NCCCCCCBr)cc1
32 | 223 to 224 | CC(C)(C)n1nc2c(N)nc3ccccc3c2c1CCCNS(C)(=O)=O
33 | 90 to 92 | Cc1cc(Oc2ccc([N+](=O)[O-])cc2C(F)(F)F)nn1C(=O)NC(C)C
34 | 285 to 286 | O=C1CCN(c2ccc(C(=O)O)cc2)CCN1
35 | 222 to 224 | COc1cc(Cl)ccc1C(=O)Nc1ccc(C(=O)N2Cc3cccn3Cc3ccccc32)cc1
36 | 244 to 246 | N#CCc1ccc2ncc(C(=O)NCc3ccc(Cl)cc3)c(O)c2c1
37 | 129 to 131 | Cc1cc(C(C)N(O)C(N)=O)ccc1Cl (centres undefined)
38 | 91 | CCC1Oc2ccc(Br)cc2N(CC(O)CO)C1=O (centres undefined)
39 | 95 to 97 | CN(C)S(=O)(=O)c1ccc([N+](=O)[O-])cc1C(F)(F)F
40 | 52 to 55 | Cc1cn(C2(C(=O)N(C)C)CC2)nc1-c1ccccc1
41 | 101 to 104 | CCCC=Cc1c(C(C)C)nc(C(C)C)c(CO)c1-c1cccc(Cl)c1
42 | 224 to 228 | CC=Cc1cccc2c(=O)c(C)c(C(=O)O)oc12
43 | 282 | O=c1[nH]c2cc(Cl)cc(Cl)c2c(O)c1Sc1ccc(NC(=S)NCc2ccccc2)cc1
44 | 270 to 272 | Cn1nc(S(C)(=O)=O)c(=O)c2ccc(Cl)cc21
45 | 158 to 159 | O=C(O)COc1cc(F)cc(F)c1C(=O)NCc1ccc(Br)cc1F

Continued, molecule first:

Row | SMILES | melting point [°C]
46 | c1ccc(-n2c3ccccc3c3cc4c(cc32)c2ccccc2n4-c2ccccc2)cc1 | 306
47 | Nc1nccc(CCc2ccc3c(C(=O)Nc4cccc(C(F)(F)F)c4)cccc3c2)n1 | 225 to 227
48 | CC(C)Cn1c(CN2C(=O)c3ccccc3C2=O)c(OCCCC(F)(F)F)c2cc(OCc3ccccc3)ccc2c1=O | 131 to 132
49 | CCOC(=O)c1c(Cn2cncn2)nc2cc3c(cc2c1-c1ccc(OC)c(OC)c1)OCCO3 | 138 to 140
50 | CCCc1ccc(OC)c(-c2csc(N)n2)c1 | 84
51 | CN1C(=O)C(=Cc2cc(C(C)(C)C)c(O)c(C(C)(C)C)c2)SC1=S | > 230
52 | COC(=O)Cc1ccc(OCCNC(=O)C2Cc3ccccc3N2S(=O)(=O)c2ccc(-c3cc(C(F)(F)F)ccc3C)cc2)cc1 (centres undefined) | 46 to 49
53 | Cc1ccc(C(=O)Nc2ccc(N3CCNCC3)cc2)c(-c2ccc(C(C)C)cc2)c1 | 131 to 133
54 | CCOC(=O)CCCCCCC1C(=O)NC(=O)N1CCC(O)C1CCCCC1 (centres undefined) | 62 to 63
55 | CCOC(=O)COc1ccc(SCc2cccc3nc(-c4ccc(C(F)(F)F)cc4)sc23)cc1C | 193 to 196
56 | COc1ccccc1Sc1c(NS(=O)(=O)c2ccc(C(C)(C)C)cc2)nc(CO)nc1OC | 152
57 | FC(F)(F)c1ccc(-n2nnnc2Nc2ccc(C(F)(F)F)cc2Cl)cc1 | 116
58 | COc1ccc(-c2cccc3c2OC(COS(=O)(=O)c2ccc(C)cc2)C3)c(OC)c1 (centres undefined) | 120 to 123
59 | COc1ccc(C(C#Cc2ccccc2)Cc2ncc(C)o2)cc1OC1CCCC1 (racemic) | 103 to 104
60 | O=C1CNc2ncc(-c3cccnc3)cc2N1Cc1c(Cl)cccc1Cl | > 200
61 | Cc1cc(C)c2nc(C)n(Cc3ccc(NCC4CCN(C(C)C)CC4)cc3)c2n1 | 134 to 136
62 | Cc1nc2ccc(N(C)C)nn2c1S(N)(=O)=O | 227
63 | N#CCc1cccc(-c2onc3ccccc23)c1 | 122 to 124
64 | CC(C)(C)OC(=O)N[C@@H](CC1CCCCC1)[C@@H](O)[C@@H](O)C1CC1 | 83 to 85
65 | Cc1ccc(N2CCC(N)=N2)cc1 | 142 to 143
66 | CCOCc1nc2c(N)nc3cc(OCc4ccc(OC)cc4)ccc3c2n1CC(C)C | 181 to 182
67 | CS(=O)(=O)Nc1ccc(OC2CCN(c3ccncc3)CC2)cc1 | 191 to 192
68 | Fc1ccc(-c2c[nH]cc2-c2ccc(F)cc2)cc1 | 142
69 | Fc1cc2c(Nc3ccc(Br)c(Br)c3)ncnc2cn1 | 262 to 264
70 | Cc1ccc(S(=O)(=O)OC[C@@H]2COc3ccc4scc(Cl)c4c3O2)cc1 | 169 to 170
71 | Nc1cnccc1CNC(=O)C1Cc2ccccc2N1S(=O)(=O)c1ccc(-c2cccc(C(F)(F)F)c2)cc1 (centres undefined) | 105 to 108
72 | c1cc(CN2CCCCC2)cc(OCCNc2nc3ccccc3s2)c1 | 141 to 142

Row | SMILES | melting point [°C]
73 | CCCCN1C(=O)NC(CC(=O)O)C1=O (centres undefined) | 132
74 | CCC1(CCCCN2CCN(c3cccc(OC)c3)CC2)C(=O)Nc2ccccc21 (centres undefined) | 123 to 125
75 | CC(=O)OC1(c2nc3ccccc3s2)C=CC(=O)C=C1 | 101
76 | COc1ccc(-c2nc(Sc3ccc(F)cc3F)[nH]c2-c2ccc(OC)cc2)cc1 | 174 to 176
77 | O=c1ccc2cnccc2[nH]1 | 295 to 297
78 | CNc1c(S(=O)C(F)(F)F)c(C#N)nn1-c1c(Cl)cc(C(F)(F)F)cc1Cl (centres undefined) | 227
79 | CN1CCN(Cc2cccc(-c3cc4c(Nc5cccc6[nH]ccc56)c(C#N)cnc4s3)c2)CC1 | > 245
80 | COc1cc(N)ccc1-c1cnn(C)c1 | 129 to 131
81 | CCOC(=O)c1cnc2ccc(OC)nc2c1Nc1ccc(OC)cc1 | 115 to 117
82 | COc1cccc(Oc2c(NS(=O)(=O)c3ccc(C(C)(C)C)cc3)ncnc2OCCOc2ncc(Br)cn2)c1 | 168
83 | COc1ccc(C2=NN(c3ccc(C4=NNC(=O)CC4C)cc3)C(=O)C3CCCCC23)cc1OC1CCCC1 (centres undefined) | 134 to 141
84 | O=c1[nH]c(-c2cccc(Oc3ccc4c(c3)S(=O)(=O)N=C3CCCN34)c2)no1 | > 250
85 | N=C(Nc1ccc(CCCC(=O)Nc2ccccc2)cc1)c1cccs1 | 229 to 231
86 | OCCCc1ccc(Sc2ccc(CCCO)cc2C(F)(F)F)c(C(F)(F)F)c1 | 96 to 102
87 | C=Cc1cccc2[nH]cc(S(=O)(=O)c3ccccc3)c12 | 125 to 128
88 | CCC1c2c(ncn2C)CCN1C(=S)NC(C)C (centres undefined) | 196
89 | CC(=O)C1CCC2C3CCC4CC(O)CCC4(C)C3=CCC12C (centres undefined) | 160 to 161
90 | O=C1c2cccc([N+](=O)[O-])c2C2CC3(CCN12)SCCS3 (centres undefined) | 185
91 | C=CN1Cc2ccccc2-c2ccc(Cl)cc2C1=O | 170 to 172
92 | O=C(COc1ccccc1)COc1ccccc1 | 55 to 57
93 | COc1ccc(CN2CC=C(c3cc4ccccc4s3)CC2)cc1 | 158 to 160
94 | COc1cccc(N(C)C(=O)Oc2ccc(C(C)C)cc2)n1 | 64 to 65
95 | BrCCCCCCCOc1ccc2c(c1)OCO2 | 45 to 47
96 | COC(=O)C1=C(C)NC(C2CCCCC2)=C(S(=O)(=O)N(C)C)C1c1cccc([N+](=O)[O-])c1 (centres undefined) | 185 to 188
97 | CC1=C(C)C(=O)N(CCN(C)C)C1=O | 9
98 | Cc1ncncc1C(=O)Nc1ccc(-n2nc(C(F)(F)F)cc2C2CC2)cc1 | 163 to 166
99 | Cc1cc(O)nc(C(Cl)(Cl)Cl)n1 | 173 to 174
